Test: Preservation test: residual ratio of reduced coenzyme Q10 (oxidative stability, HPLC)
Type: physicochemical
Settings: powder preserved for 30 days at 40° C. under shading conditions
Protocol: The purity of reduced coenzyme Q10, the weight ratio (%) of oxidized coenzyme Q10 and reduced coenzyme Q10 and the like were determined by the following HPLC analysis. The HPLC analysis conditions are described below.
column: SYMMETRY C18 (manufactured by Waters) 250 mm (length) 4.6 mm (inner diameter), mobile phase; C2H5OH/CH3OH=4/3(v/v), detection wavelength; 210 nm, flow rate; 1.0 ml/min, retention time of reduced coenzyme Q10; 9.1 min, retention time of oxidized coenzyme Q10; 13.3 min.

COc1c(O)c(C)c(C/C=C(\C)CC/C=C(\C)CC/C=C(\C)CC/C=C(\C)CC/C=C(\C)CC/C=C(\C)CC/C=C(\C)CC/C=C(\C)CC/C=C(\C)CCC=C(C)C)c(O)c1OC [reduced coenzyme Q10 powder, reduced coenzyme Q10]
residual ratio of reduced coenzyme Q10: 28%

— patent US20100092560A1, “REDUCED COENZYME Q10-CONTAINING PARTICULATE COMPOSITION AND METHOD FOR PRODUCING THE SAME” (KANEKA CORPORATION, priority 2007, published 2010)
